From patent US11406707B2, “STAT3 phosphorylation during graft-versus-host disease” (H. LEE MOFFITT CANCER CENTER AND RESEARCH INSTITUTE, INC., priority 2014, dated 2022) come the findings set out here.

Molecules are shown by their SMILES.

Data set [1] is described as follows: S3I-201 treatment of GVHD in vivo (B6 marrow +/- T-cells into Balb/c mice). The text has this: FIG. 7. B6 T-cell depleted marrow (+/− T-cells) were given to Balb/c mice. S3I-201 or vehicle was given by i.p. from day 0 to day +7 only. Mice were then followed for body weight (FIG. 7B), GVHD clinical scores (FIGS. 7C, 7D), and survival (FIG. 7A).
B6 T-cell depleted marrow (+/− T-cells) were given to Balb/c mice. S3I-201 or vehicle was given by i.p. from day 0 to day +7 only. Mice were then followed for body weight (FIG. 7B), GVHD clinical scores (FIGS. 7C, 7D), and survival (FIG. 7A). […] All of the GVHD control mice (i.e., TCD marrow+T-cells+vehicle) have since died of GVHD.

Data set [2] addresses T1, STAT3 (Homo sapiens, UniProt P40763).
T1 construct: endogenous in cells; host or cells: primary human T cells from healthy-donor PBMC, allostimulated by monocyte-derived dendritic cells
Briefly: STAT3 phosphorylation in CD4+ T cells of 5 day allo-MLRs without exogenous cytokine. The format is cell-based. The note with it: S3I-201 50 or 100 μM, 5 day allo-MLR. On the procedure:
No exogenous cytokine was added. DC-allosensitized T cells were harvested on day 5. […] The ratio of CD4^+, pSTAT5^Bright to CD4^+, pSTAT3^+ T cells was calculated by percentage of phosphorylation.

In data set [3] the target is T2, STAT3 Y705 (Homo sapiens, UniProt P40763).
T2 construct: endogenous in cells; host or cells: primary human T cells from healthy-donor PBMC, allostimulated by monocyte-derived dendritic cells
T2 sequence (P40763 whole entry): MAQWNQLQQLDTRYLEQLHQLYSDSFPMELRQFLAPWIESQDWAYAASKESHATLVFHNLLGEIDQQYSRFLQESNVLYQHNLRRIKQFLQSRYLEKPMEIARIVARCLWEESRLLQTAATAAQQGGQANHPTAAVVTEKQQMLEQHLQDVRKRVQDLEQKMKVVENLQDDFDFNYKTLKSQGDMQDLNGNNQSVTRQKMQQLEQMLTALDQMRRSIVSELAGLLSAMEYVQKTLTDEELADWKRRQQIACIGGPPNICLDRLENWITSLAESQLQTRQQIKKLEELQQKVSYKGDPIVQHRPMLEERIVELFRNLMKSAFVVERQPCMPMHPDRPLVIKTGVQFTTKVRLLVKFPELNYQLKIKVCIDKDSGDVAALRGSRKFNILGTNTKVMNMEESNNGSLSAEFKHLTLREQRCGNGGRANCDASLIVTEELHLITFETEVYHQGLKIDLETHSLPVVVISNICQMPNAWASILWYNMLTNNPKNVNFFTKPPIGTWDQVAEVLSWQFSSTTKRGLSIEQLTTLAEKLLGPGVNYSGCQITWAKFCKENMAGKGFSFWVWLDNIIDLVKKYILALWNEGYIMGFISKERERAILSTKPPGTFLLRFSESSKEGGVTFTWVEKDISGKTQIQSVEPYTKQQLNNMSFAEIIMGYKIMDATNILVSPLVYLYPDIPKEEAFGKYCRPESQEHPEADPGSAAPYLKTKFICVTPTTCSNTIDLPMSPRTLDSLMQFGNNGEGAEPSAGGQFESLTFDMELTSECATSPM
Briefly: IL-6-STAT3 Y705 phosphorylation in DC-allostimulated donor T-cells. The following applies: S3I-201 50 uM, 4 hours, IL-6 pulse. The format is cell-based. How it is done: T-cells were serum-starved in RPMI treated with DMSO diluent control, rapamycin 100 ng/ml (EMD Millipore, Billerica, Mass. USA), or STAT3 inhibitor S3I-201 50 uM (H. Lee Moffitt Cancer Center, Drug Discovery Core) for 4 hours. For the STAT3 experiments, the T-cells were first DC-allostimulated (DC:T-cell ratio of 1:30) for 3 days to optimize surface expression of IL-6 receptor alpha and STAT3 signaling among healthy volunteers. The T-cells were then cytokine-pulsed for 15 minutes with either IL-2 (R&D Systems) to activate the Akt-mTOR-S6 pathway, or IL-6 to stimulate STAT3 phosphorylation. The cells were then fixed and permeabilized as described, and then stained for CD3, CD4 (STAT3 experiments), phosphorylated STAT3 Y705, and phosphorylated S6.

Data set [4] deals with Foxp3 TSDR. Description: iTreg Foxp3 demethylation assay. In kind it is cell-based, human. The following applies: S3I-201 50 or 100 μM. The text has this:
iTreg Foxp3 demethylation assay. […] (2013) J. Immunol. 190, 3180-3188; Miyao, T., et al. (2012) Immunity 36, 262-275]. The degree of Foxp3 TSDR demethylation among iTregs from DMSO-treated allo-MLRs, purified nTregs, and Tconvs served as the controls [[…]., et al. (2013) Blood 122(13):2251-61]. For these experiments, iTregs and nTregs were sorted to select the CD4^+ CD25^+ CD127^- population. PCR products were amplified by using methylation or demethylation specific TSDR forward and reverse primers from bisulphate-treated genomic DNA of sorted natural Tregs. DNA fragments were cloned into a pCR2.1-Topo vector (Life Technologies, Grand Island, N.Y., USA) and verified by DNA sequencing. The following TSDR primers and probes were used for PCR: methylation forward [NT] ID NO:1), reverse [NT] ID NO:2), and hydrolysis probe [NT] (SEQ ID NO:3); and demethylation forward [NT] ID NO:4), reverse [NT] ID NO:5), and hydrolysis probe [NT] ID NO:6). Standards were diluted at concentrations ranging from 2^7 to 2^3 plasmid copies of each methylation or demethylation TSDR. Genomic DNA was isolated by using the DNeasy Blood and Tissue kit (Qiagen, Valencia, Calif., USA) from sorted natural or expanded iTregs. Genomic DNA (200-500 ng) was treated with bisulfite from the EZ DNA Methylation-Gold Kit (Zymo Research, Irvine, Calif., USA). […]

The test system of data set [5] is primed T-cells. Briefly: Secondary alloMLR (3-day restimulation of primed T-cells) proliferation. The format is cell-based, human. The text has this: (§1) Bulk donor T-cells were allostimulated with cytokine-matured, allogeneic moDCs at a DC:T-cell ratio of 1:30 as previously described (Florida Blood Services) [Betts, B C, et al. (2011) Blood 118:5330-9; Betts, B C, et al. […] Betts, B C, et al. (2011) Blood 118:5340-3]. […] Lower doses of each drug were used in these experiments to mimic expected physiologic concentrations [Siddiquee, K, et al. (2007) Proceedings of the National Academy of Sciences of the United States of America 104:7391-6; Zeiser, R, et al. (2008) Blood 111:453-62], and to better detect potential synergistic activity with the combination of rapamycin and S3I-201. After 5 days of culture at […]-cell proliferation was measured by a colorimetric assay per the manufacturer's instructions (CellTiter 96 Aqueous One Solution Cell Proliferation Assay [MTS]; Promega, Madison, Wis. USA) [Betts, B C, et al. (2011) Blood 118:5330-9; Betts, B C, et al. […] Betts, B C, et al. (2011) Blood 118:5340-3]. Absorbance/optical density (OD) was analyzed at 490 nm. Secondary alloMLR: […] Following priming, the T-cells were then rested and re-cultured with fresh first-party moDCs (DC:T-cell ratio of 1:30). […] After 3 days, T-cell proliferation was measured by a colorimetric assay as described (Promega). T-cells alone and PHA-stimulated T-cells served as negative and positive controls, respectively, for both the primary and secondary alloMLRs.

Data set [6] has as its system CD8+ T cells. Description: Evaluation of CD8 CTL capacity (CD107a, IFN-γ). In kind it is cell-based, human. The following applies: S3I-201 50 or 100 μM, day 5. How it is done:
The naive CD8^+ T cells were purified by live cell sorting (CD4^− and CD45RO/CD25^−) and were stimulated with allogeneic moDCs (DC:T cell ratio of 1:30), with S3I-201 (50 or 100 μM) or DMSO added once on day 0. On day 5, the allosensitized CD8 T cells were harvested and stimulated with PMA/ionomycin in the presence of Golgi Stop and anti-CD107a, followed by surface CD8 and intracellular IFN-γ staining.

The test system of data set [7] is allostimulated T-cell proliferation. Description: Primary 5-day alloMLR T-cell proliferation. The format is cell-based, human.
Text: as §1

T1 sequence (P40763 whole entry): as above

Turning to `Cc1ccc(S(=O)(=O)OCC(=O)Nc2ccc(C(=O)O)c(O)c2)cc1` [S3I-201], the tolerability result in data set [1] (2.5 mg/kg i.p. day 0 to day +7) is given as “well tolerated”; in data set [1] (5 mg/kg i.p. day 0 to day +7), “toxic”. Besides, in data set [1] (S3I-201 i.p. day 0 to day +7, GVHD control mice all died), the survival result was “alive at day +53”. The “STAT3 phosphorylation in CD4+ alloresponders” value in data set [2] is “maintained on-target suppression”. Further, in data set [3], the “IL-6-mediated STAT3 phosphorylation of Y705” value was “significantly decreased”. Besides, the “iTreg Foxp3 demethylation compared with DMSO” value in data set [4] is reported as “significantly enhanced”. Besides, in data set [5] (Homo sapiens, T-cell, S3I-201 50 μM, read-out: inhibition of proliferation in comparison to DMSO), the inhibition at 50 µM was 67%. The “proliferation of primed T-cells on rechallenge” value in data set [5] (S3I-201 50 μM alone) is “significantly suppressed”. Besides, the “CTL potential vs DMSO control” value in data set [6] is given as “not significantly different”. For the same molecule, the “cytolytic potential by CD107a expression and intracellular IFN-γ production” value in data set [6] is “intact cytolytic potential”. In data set [7] (S3I-201 50 uM single agent), the “allostimulated T-cell proliferation” value is “significantly reduced”. For the same molecule, the “alloreactive T-cell proliferation” value in data set [7] (S3I-201 below 50 μM single agent) is reported as “no effect”.
